Reference: PMC7587962, “Evaluation of Cytotoxicity and α-Glucosidase Inhibitory Activity of Amide and Polyamino-Derivatives of Lupane Triterpenoids” (Molecules, 2020)
Like-named read-outs stand apart in the source and are kept apart here.

Tests used:
UACC-257 = test: NCI-60 SRB screen: melanoma UACC-257; format: cell-based, human; details: UACC-257
Colon Cancer subpanel = test: NCI-60 screen, subpanel Colon Cancer
SR = test: NCI-60 SRB screen: leukemia SR; format: cell-based; details: Homo sapiens, 48 h
UACC-62 = test: NCI-60 SRB screen: melanoma UACC-62; format: cell-based, human; details: UACC-62
[1] = test system: 60 human tumor cell lines; details: single dose 10 µM
A498 = test: NCI-60 SRB screen: renal cancer A498; format: cell-based, human; details: A498
SK-OV-3 = test: NCI-60 SRB screen: ovarian cancer SK-OV-3; format: cell-based, human; details: SK-OV-3
NCI-H522 = test: NCI-60 SRB screen: non-small cell lung cancer NCI-H522; format: cell-based, human; details: NCI-H522
MCF7 = test: NCI-60 SRB screen: breast cancer MCF7; format: cell-based; details: Homo sapiens, 48 h, MCF7
SK-MEL-28 = test: NCI-60 SRB screen: melanoma SK-MEL-28; format: cell-based, human; details: SK-MEL-28
COLO 205 = test: NCI-60 SRB screen: colon cancer COLO 205; format: cell-based, human; details: COLO 205
Melanoma subpanel = test: NCI-60 screen, subpanel Melanoma
Leukemia subpanel = test: NCI-60 screen, subpanel Leukemia
NCI-H226 = test: NCI-60 SRB screen: non-small cell lung cancer NCI-H226; format: cell-based, human; details: NCI-H226
CNS cancer subpanel = test: NCI-60 screen, subpanel CNS cancer
LOX IMVI = test: NCI-60 SRB screen: melanoma LOX IMVI; format: cell-based, human
NCI/ADR-RES = test: NCI-60 SRB screen: ovarian cancer NCI/ADR-RES; format: cell-based, human
SNB-19 = test: NCI-60 SRB screen: CNS cancer SNB-19; format: cell-based, human; details: SNB-19
SN12C = test: NCI-60 SRB screen: renal cancer SN12C; format: cell-based, human
HL-60(TB) = test: NCI-60 SRB screen: leukemia HL-60(TB); format: cell-based; details: Homo sapiens, 48 h, HL-60(TB)
[2] = test system: 60 human tumor cell lines; test: cells
BT-549 = test: NCI-60 SRB screen: breast cancer BT-549; format: cell-based, human; details: BT-549
UO-31 = test: NCI-60 SRB screen: renal cancer UO-31; format: cell-based, human; details: UO-31
MDA-MB-468 = test: NCI-60 SRB screen: breast cancer MDA-MB-468; format: cell-based, human
SW-620 = test: NCI-60 SRB screen: colon cancer SW-620; format: cell-based; details: Homo sapiens, 48 h, SW-620
HCT-15 = test: NCI-60 SRB screen: colon cancer HCT-15; format: cell-based, human; details: HCT-15
786-0 = test: NCI-60 SRB screen: renal cancer 786-0; format: cell-based, human; details: 786-0
Breast cancer subpanel = test: NCI-60 screen, subpanel Breast cancer
SK-MEL-2 = test: NCI-60 SRB screen: melanoma SK-MEL-2; format: cell-based, human; details: SK-MEL-2
OVCAR-4 = test: NCI-60 SRB screen: ovarian cancer OVCAR-4; format: cell-based; details: Homo sapiens; OVCAR-4; five concentrations, 48 h, SRB; read-out: GI50
Prostate cancer subpanel = test: NCI-60 screen, subpanel Prostate cancer
HCT-116 = test: NCI-60 SRB screen: colon cancer HCT-116; format: cell-based; details: Homo sapiens, 48 h, HCT-116
PC-3 = test: NCI-60 SRB screen: prostate cancer PC-3; format: cell-based, human; details: PC-3
M14 = test: NCI-60 SRB screen: melanoma M14; format: cell-based, human; details: M14
[3] = Homo sapiens, five concentrations, 48 h, SRB, read-out: GI50
[4] = single dose 10 µM, read-out: Percentage Cell Growth
[5] = five concentrations, SRB, read-out: GI50

## C=C(C)[C@@H]1CC[C@]2(C(=O)NCCCN)CC[C@]3(C)[C@H](CC[C@@H]4[C@@]5(C)CCC(=O)C(C)(C)[C@@H]5CC[C@]43C)[C@@H]12 [Compound 10]
UACC-257; [3]
  GI50: 20.6 µM
UACC-257; single dose 10 µM
  Percentage Cell Growth: −46.67%
Colon Cancer subpanel
  MID b, average sensitivity of all cell line of particular subpanel: 17.82 µM
  Selectivity, ratio MID a: MID b: 1.15
SR; [4]
  activity at 10 µM: 23.7%
SR; [5]
  GI50: 9.05 µM
UACC-62; [3]
  GI50: 27.4 µM
UACC-62; single dose 10 µM
  Percentage Cell Growth: −22.62%
[1]; cell lines with negative growth
  cancer cell lethality, range of percentage growth: −2.14% to −100%
[1]; number of cell lines
  cases of cancer cell lethality: 48
A498; single dose 10 µM
  Percentage Cell Growth: −44.82%
A498; [3]
  GI50: 22.9 µM
SK-OV-3; [3]
  GI50: 17.7 µM
SK-OV-3; single dose 10 µM
  Percentage Cell Growth: −27.22%
NCI-H522; [3]
  GI50: 21 µM
NCI-H522; single dose 10 µM
  Percentage Cell Growth: −16.98%
MCF7; [4]
  activity at 10 µM: -8.46%
MCF7; [5]
  GI50: 10.7 µM
SK-MEL-28; [3]
  GI50: 22.1 µM
SK-MEL-28; single dose 10 µM
  Percentage Cell Growth: −31.42%
COLO 205; single dose 10 µM
  Percentage Cell Growth: 7.82%
COLO 205; [3]
  GI50: 21 µM
Melanoma subpanel
  MID b, average sensitivity of all cell line of particular subpanel: 24.33 µM
  Selectivity, ratio MID a: MID b: 0.84
Leukemia subpanel
  MID b, average sensitivity of all cell line of particular subpanel: 14.59 µM
  Selectivity, ratio MID a: MID b: 1.40
NCI-H226; [3]
  GI50: 21.2 µM
NCI-H226; single dose 10 µM
  Percentage Cell Growth: 36.64%
CNS cancer subpanel
  MID b, average sensitivity of all cell line of particular subpanel: 23.00 µM
  Selectivity, ratio MID a: MID b: 0.89
LOX IMVI; [3]
  GI50: 25.5 µM
LOX IMVI; single dose 10 µM
  Percentage Cell Growth: 1.37%
NCI/ADR-RES; [3]
  GI50: 24.8 µM
NCI/ADR-RES; single dose 10 µM
  Percentage Cell Growth: −9.52%
SNB-19; [3]
  GI50: 24.7 µM
SNB-19; single dose 10 µM
  Percentage Cell Growth: −29.49%
SN12C; [3]
  GI50: 20.8 µM
SN12C; single dose 10 µM
  Percentage Cell Growth: −34.74%
HL-60(TB); [4]
  activity at 10 µM: 1.25%
HL-60(TB); [5]
  GI50: 16.5 µM
[2]; read-out: GI50 ranges against all panels of NCI60
  GI50: 6.95 to 38.9 µM
[2]; read-out: MID a, average sensitivity of all cell line (GI50-MID)
  GI50: 20.5 µM
BT-549; single dose 10 µM
  Percentage Cell Growth: −2.14%
BT-549; [3]
  GI50: 23.8 µM
UO-31; [3]
  GI50: 38.9 µM
UO-31; single dose 10 µM
  Percentage Cell Growth: −34.32%
MDA-MB-468; [3]
  GI50: 12.6 µM
MDA-MB-468; single dose 10 µM
  Percentage Cell Growth: −19.87%
SW-620; [4]
  activity at 10 µM: -36.2%
SW-620; [5]
  GI50: 22.5 µM
HCT-15; single dose 10 µM
  Percentage Cell Growth: −22.06%
HCT-15; [3]
  GI50: 21.7 µM
786-0; single dose 10 µM
  Percentage Cell Growth: −22.61%
786-0; [3]
  GI50: 23.2 µM
Breast cancer subpanel
  MID b, average sensitivity of all cell line of particular subpanel: 20.30 µM
  Selectivity, ratio MID a: MID b: 1.01
SK-MEL-2; [3]
  GI50: 27.3 µM
SK-MEL-2; single dose 10 µM
  Percentage Cell Growth: −24.21%
OVCAR-4
  GI50: 25.6 µM
Prostate cancer subpanel
  MID b, average sensitivity of all cell line of particular subpanel: 15.05 µM
  Selectivity, ratio MID a: MID b: 1.36
HCT-116; [4]
  activity at 10 µM: 1.97%
HCT-116; [5]
  GI50: 13.9 µM
PC-3; [3]
  GI50: 12.6 µM
PC-3; single dose 10 µM
  Percentage Cell Growth: −53.78%
M14; [3]
  GI50: 24.7 µM
M14; single dose 10 µM
  Percentage Cell Growth: 5.07%
